Measured values from patent US20250268903A1, “RXFP1 AGONISTS” (BRISTOL-MYERS SQUIBB COMPANY, priority 2021, published 2025).

Biological target: T1, human RXFP1 (Homo sapiens, UniProt Q9HBX9)
T1 construct: expressed in transfected cells
T1 sequence (Q9HBX9 1-757): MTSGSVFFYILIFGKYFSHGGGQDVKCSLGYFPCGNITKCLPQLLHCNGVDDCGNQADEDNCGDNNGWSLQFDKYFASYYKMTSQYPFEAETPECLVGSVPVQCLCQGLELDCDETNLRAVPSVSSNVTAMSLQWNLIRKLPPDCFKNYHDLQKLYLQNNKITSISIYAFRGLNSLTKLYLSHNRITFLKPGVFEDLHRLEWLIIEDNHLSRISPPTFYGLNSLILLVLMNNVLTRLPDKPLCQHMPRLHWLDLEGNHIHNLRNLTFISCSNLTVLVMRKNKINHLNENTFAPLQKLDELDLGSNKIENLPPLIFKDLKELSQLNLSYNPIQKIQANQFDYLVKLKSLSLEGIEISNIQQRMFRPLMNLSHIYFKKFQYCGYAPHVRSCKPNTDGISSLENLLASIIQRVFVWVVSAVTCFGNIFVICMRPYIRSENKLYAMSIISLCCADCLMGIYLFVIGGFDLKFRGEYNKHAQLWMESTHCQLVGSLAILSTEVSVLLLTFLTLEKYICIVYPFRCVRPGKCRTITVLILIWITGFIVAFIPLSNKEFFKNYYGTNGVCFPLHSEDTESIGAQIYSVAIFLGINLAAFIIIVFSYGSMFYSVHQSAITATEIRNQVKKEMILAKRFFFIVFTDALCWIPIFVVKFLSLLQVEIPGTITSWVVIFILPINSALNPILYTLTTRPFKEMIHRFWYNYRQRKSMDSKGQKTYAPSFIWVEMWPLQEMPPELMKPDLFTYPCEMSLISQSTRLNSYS
Test: hRXFP1 HEK293 cAMP assay (HTRF)
Type: cell-based
Conditions: HEK293 cells stably expressing human RXFP1, 30 min at room temperature
Summary of the method: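 HEK293 cells stably expressing human RXFP1 (1500 cells/well) in HBSS/20 mM HEPES/0.05% BSA/0.5 mM IBMX. Compounds were tested at 0.010 nM–50 μM final (2% DMSO) for 30 min at room temperature. cAMP was measured by HTRF and values derived by 4-parameter logistic fit.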

| Compound | EC50 |
| --- | --- |
| COc1ccc(COc2ccccc2)cc1C(=O)N[C@@H]1C2CCC(/C2=C/C(F)(F)F)[C@@H]1C(=O)Nc1ccc(F)c(C(F)(F)F)c1 (stereo partly drawn) [Example 20, (2S,3R,7Z)-N-[4-fluoro-3-(trifluoromethyl)phe-nyl]-3-[2-methoxy-5-(phenoxymethyl)ben-zamido]-7-(2,2,2-trifluoroethylidene)bi-cyclo[2.2.1]heptane-2-carboxamide] | 142 nM |
| COc1ccc(Nc2ccccc2)cc1C(=O)N[C@H]1[C@@H](C(=O)Nc2ccc(F)c(C(F)(F)F)c2)[C@H]2CC[C@@H]1/C2=C\C1CC1 [Example 2, (1R,2S,3R,4R,Z)-7-(cyclopropylmethylene)-N-(4-fluoro-3-(trifluoromethyl)phenyl)-3-(2-methoxy-5-(phenylamino)benzamido) bicyclo[2.2.1]heptane-2-carboxamide] | 280 nM |
| COc1ccc(CC2CCOCC2)cc1C(=O)NC1C2CCC(/C2=C/C(F)(F)F)[C@@H]1C(=O)Nc1ccc(F)c(C(F)(F)F)c1 (stereo partly drawn) [Example 178, (7Z)-N-[4-fluoro-3-(trifluoromethyl)phe-nyl]-3-{2-methoxy-5-[(oxan-4-yl)methyl]benzamido}-7-(2,2,2-trifluoroethylidene)bi-cyclo[2.2.1]heptane-2-carboxamide] | 355 nM |
| COc1ccc(C#C[C@@H](C)O)cc1C(=O)N[C@@H]1C2CCC(/C2=C/C(F)(F)F)[C@@H]1C(=O)Nc1ccc(F)c(C(F)(F)F)c1 (stereo partly drawn) [Example 72, (2S,3R,7Z)-N-[4-fluoro-3-(trifluoromethyl)phe-nyl]-3-{5-[(3R)-3-hydroxybut-1-yn-1-yl]-2-methoxybenzamido}-7-(2,2,2-trifluoroethylidene)bi-cyclo[2.2.1]heptane-2-carboxamide] | 134 nM |
| (1R,4R,7Z)-7-(2- cyclobutylethylidene)- N-[4-fluoro-3- (trifluoromethyl) phenyl]-3-[5-(3- hydroxy-3- methylbutyl)-2- methoxybenzamido] bicyclo[2.2.1]heptane- 2-carboxamide [Example 262] | 197 nM |
| (1R,4R,7Z)-7-(2- cyclobutylethylidene)- N-[4-fluoro-3- (trifluoromethyl) phenyl]-3-[5-(3- hydroxypropyl)-2- methoxybenzamido] bicyclo[2.2.1]heptane- 2-carboxamide [Example 261] | 147 nM |
| COc1ccc(/C=C/C(=O)N2CC3CCC(C2)O3)cc1C(=O)N[C@H]1[C@@H](C(=O)Nc2ccc(F)c(C(F)(F)F)c2)[C@H]2CC[C@@H]1/C2=C\C1CC1 [Example 308, (1R,2S,3R,4R,7Z)-7-(cyclopropylmethylidene)-N-[4-fluoro-3-(trifluoromethyl)phenyl]-3-{2-methoxy-5-[(1E)-3-{8-oxa-3-azabicyclo[3.2.1]octan-3-yl}-3-oxoprop-1-en-1-yl]benzamido} bicyclo[2.2.1] heptane-2-carboxamide] | 13.7 nM |
| COc1ccc(C2CCCC(OC(=O)Nc3ccccc3)C2)cc1C(=O)N[C@@H]1C2CCC(/C2=C/C(F)(F)F)[C@@H]1C(=O)Nc1ccc(F)c(C(F)(F)F)c1 (single isomer, unassigned) [Example 42] | 214 nM |
| COC(=O)OCC/C=C/c1ccc(OC)c(C(=O)N[C@H]2[C@@H](C(=O)Nc3ccc(F)c(C(F)(F)F)c3)[C@H]3CC[C@@H]2C3=C(C)C)c1 [Example 33, (E)-4-(3-(((1R,2R,3S,4R)-3-((4-fluoro-3-(trifluoromethyl)phenyl)carbamoyl)-7-(propan-2-ylidene)bicyclo[2.2.1]heptan-2-yl)carbamoyl)-4-methoxyphenyl) but-3-en-1-yl methyl carbonate] | 580 nM |
| COc1ccc(CCCO)cc1C(=O)NC1C2CCC(/C2=C/C2CCOCC2)[C@@H]1C(=O)Nc1ccc(F)c(C(F)(F)F)c1 (stereo partly drawn) [Example 165, (7Z)-N-[4-fluoro-3-(trifluoromethyl)phe-nyl]-3-[5-(3-hydroxypropyl)-2-methoxybenzamido]-7-[(oxan-4-yl)methylidene]bicy-clo[2.2.1]heptane-2-carboxamide] | 218 nM |
| (1R,4R,7Z)-N-[4- fluoro-3- (trifluoromethyl) phenyl]-3-[5-(3- hydroxy-3- methylbutyl)-2- methoxybenzamido 1-7-[(oxolan-3- yl)methylidene] bicyclo[2.2.1] heptane- 2-carboxamide [Example 267] | 246 nM |
| COCC/C=C1\C2CCC1[C@H](C(=O)Nc1ccc(F)c(C(F)(F)F)c1)C2NC(=O)c1cc(CCCO)ccc1OC (stereo partly drawn) [Example 161, (7Z)-N-[4-fluoro-3-(trifluoromethyl)phe-nyl]-3-[5-(3-hydroxypropyl)-2-methoxybenzamido]-7-(3-methoxypropylidene) bicyclo[2.2.1]heptane-2-carboxamide] | 1160 nM |
| COc1ccc(CCN2CCOC2=O)cc1C(=O)NC1C2CCC(/C2=C/C2CCC2)[C@@H]1C(=O)Nc1ccc(F)c(C(F)(F)F)c1 (stereo partly drawn) [Example 191, (7Z)-7-(cyclobutylmethyl-idene)-N-[4-fluoro-3-(trifluoromethyl)phe-nyl]-3-{2-methoxy-5-[2-(2-oxo-1,3-oxazolidin-3-yl)ethyl]benzamido} bicyclo[2.2.1]heptane-2-carboxamide] | 40 nM |
| COc1ccc(/C=C/C(=O)N(C)CCO)cc1C(=O)N[C@@H]1C2CCC(/C2=C/C(F)(F)F)[C@@H]1C(=O)Nc1ccc(F)c(C(F)(F)F)c1 (stereo partly drawn) [Example 126, (2S,3R,7Z)-N-[4-fluoro-3-(trifluoromethyl)phe-nyl]-3-{5-[(1E)-2-[(2-hydroxyethyl)(meth-yl)carbamoyl]eth-1-en-1-yl]-2-methoxybenzamido}-7-(2,2,2-trifluoroethylidene)bi-cyclo[2.2.1]heptane-2-carboxamide] | 35 nM |
| COC(=O)/C=C\c1ccc(OC)c(C(=O)N[C@H]2[C@@H](C(=O)Nc3ccc(F)c(C(F)(F)F)c3)[C@H]3CC[C@@H]2/C3=C\C(F)(F)F)c1 [Example 304, methyl (2Z)-3-(3-{[(1R,2R,3S,4R,7Z)-3-{[4-fluoro-3-(trifluoromethyl)phenyl]carbamoyl}-7-(2,2,2-trifluoroethylidene)bicyclo[2.2.1]heptan-2-yl]carbamoyl}-4-methoxyphenyl) prop-2-enoate] | 597 nM |
| COc1ccc(C#CCCOC(=O)NC2CCC2)cc1C(=O)N[C@@H]1C2CCC(/C2=C/C(F)(F)F)[C@@H]1C(=O)Nc1ccc(F)c(C(F)(F)F)c1 (stereo partly drawn) [Example 79, 4-(3-{[(2R,3S,7Z)-3-{[4-fluoro-3-(trifluoromethyl)phe-nyl]carbamoyl}-7-(2,2,2-trifluoroethylidene)bi-cyclo[2.2.1]heptan-2-yl]carbamoyl}-4-methoxyphenyl)but-3-yn-1-yl N-cyclobutylcarbamate] | 104 nM |
| COc1ccc(C2CCCC(O)C2)cc1C(=O)N[C@@H]1C2CCC(/C2=C/C(F)(F)F)[C@@H]1C(=O)Nc1ccc(F)c(C(F)(F)F)c1 (single isomer, unassigned) [Example 35] | 667 nM |
| COc1ccc(S(N)(=O)=O)cc1C(=O)N[C@@H]1C2CCC(C2=C(C)C)[C@@H]1C(=O)Nc1ccc(F)c(C(F)(F)F)c1 (stereo partly drawn) [Example 207, (2S,3R)-N-[4-fluoro-3-(trifluoromethyl)phenyl]-3-(2-methoxy-5-sulfamoylbenzamido)-7-(propan-2-ylidene)bicyclo[2.2.1] heptane-2-carboxamide] | 890 nM |
| COc1ccc([C@H]2C[C@@H](O)C2)cc1C(=O)NC1C2CCC(/C2=C/C2CC2)[C@@H]1C(=O)Nc1ccc(F)c(C(F)(F)F)c1 (stereo partly drawn) [Example 147, (2S,3R,7Z)-7-(cyclopropylmethyli-dene)-N-[4-fluoro-3-(trifluoromethyl)phe-nyl]-3-{2-methoxy-5-[(1r,3r)-3-hydroxycyclobutyl]benzamido}bicyclo [2.2.1]heptane-2-carboxamide] | 21 nM |
| COc1ccc(/C=C/C(=O)N(C)CCO)cc1C(=O)N[C@H]1[C@@H](C(=O)Nc2ccc(F)c(C(F)(F)F)c2)[C@H]2CC[C@@H]1/C2=C\C1CC1 [Example 302, (1R,2S,3R,4R,7Z)-7-(cyclopropyl-methylidene)-N-[4-fluoro-3-(trifluoromethyl)phenyl]-3-{5-[(1E)-2-[(2-hydroxyethyl) (methyl)carbamoyl]eth-1-en-1-yl]-2-methoxybenzamido} bicyclo[2.2.1]heptane-2-carboxamide] | 16.3 nM |
| COc1ccc(CC[C@H](C)O)cc1C(=O)N[C@@H]1C2CCC(/C2=C/C2CC2)[C@@H]1C(=O)Nc1ccc(F)c(C(F)(F)F)c1 (stereo partly drawn) [Example 94, (2S,3R,7Z)-7-(cyclopropylmethyli-dene)-N-[4-fluoro-3-(trifluoromethyl)phe-nyl]-3-{5-[(3S)-3-hydroxybutyl]-2-methoxybenzamido} bicyclo[2.2.1]heptane-2-carboxamide] | 62 nM |
